In the case of `COc1ccc(-c2cc(=O)c3c(O)cc(O)cc3o2)cc1`, the melting point stood at 263 °C.

As to `COCCOC(=O)c1ccccc1C(=O)OCCOC`, the melting point was -45 °C.

As for `N#Cc1ccc(C(Cl)=Cc2cccc(C=C(Cl)c3ccc(C#N)cc3[N+](=O)[O-])c2)c([N+](=O)[O-])c1`, the melting point worked out at 268 °C.

For `Sc1nnc(-c2ccc(Cl)cc2Cl)n1Cc1ccco1`, the melting point fell in the range of 158 to 160 °C.

Compound `ON=C(C1CC1)C1CC1` had a melting point of 76.5 °C.

The compound `Brc1ccc(-c2cccnc2)nc1` showed a melting point of 77 °C.

On to `Cc1nn(C)c2ncc(C(=O)O)c(Cl)c12`, for which the melting point turned out to be 269 °C.

With `O=C1CCCCCN1Cc1ccccc1`, the melting point is 56 to 57 °C.

Turning to `CC1CCC(C(C)C)C(OC(=O)C(C=Cc2ccccc2)C(=O)c2ccccc2)C1` (stereo unspecified), the melting point stood at 104 °C.

The compound `Cc1cc(O)c(C(=O)O)c(O)c1` returned a melting point of 176 °C.

`O=C(Nc1ccccc1SSc1ccccc1NC(=O)c1ccccc1)c1ccccc1` registered a melting point of 142 °C.

`CC(NC(C)(C)C)C(=O)c1cccc(Cl)c1` (stereo unspecified) had a melting point of 234 °C.

In the case of `N#Cc1cc([N+](=O)[O-])ccc1-n1cccc1`, the melting point was 96 to 98 °C.

Take `COc1ccccc1-c1ccc(C=CC(=O)c2ccco2)o1`: the melting point was 96 to 98 °C.

`CC12CCC(C(COC(=O)c3ccccc3)C1=O)C2(C)C` (stereo unspecified) showed a melting point of 96 °C.

In turn, `O=C(O)c1ccc(O)c([N+](=O)[O-])c1` returned a melting point of 230 °C.

For `O=C(O)c1ccc2c(c1)OCCOCCOCCOCCO2`, the melting point was in the range of 188 to 191 °C.

On to `Cc1ccc2cnn(C)c2n1`, for which the melting point worked out at 184 °C.

As for `CC(CCC(=O)O)C1CCC2C3CCC4CC(O)CCC4(C)C3CCC12C` (stereo unspecified), the melting point was 186 °C.

In the case of `Cc1ccc2c(ccc3cc4ccccc4cc32)c1`, the melting point was 156 °C.

The compound `COc1ccc(-c2nn3c(COc4ccccc4)nnc3s2)cc1OC` came in with a melting point of 106 °C.

With `O=C1OC(CO)C(O)C(O)C1O` (stereo unspecified), the melting point lay within 151 to 155 °C.

`Nc1ccc(N)cc1` showed a melting point of 146 °C.

`Nc1ccc(NC(=O)c2ccc(N)cc2)cc1` had a melting point of 203 to 207 °C.

For the compound `ClC(Cl)(Cl)CC(Cl)(Cl)Cl`, the melting point was -27 °C.

Turning to `Clc1cc2oc3ccc(Cl)c(Cl)c3c2cc1Cl`, the melting point worked out at 210 °C.

As for `COc1ccc2cc(CCC(C)=O)ccc2c1`, the melting point stood at 80 °C.

On to `COc1ccc(Cc2cnc(N)nc2N)cc1OC`, for which the melting point worked out at 233 °C.

`CC(C)C(C)C=CC(C)C1CCC2C3=CC=C4CC(O)CCC4(C)C3=CCC21C` (stereo unspecified) gave a melting point of 146 °C.

As for `COc1ccc(NC(=S)c2cc(C(C)(C)C)c(O)c(C(C)(C)C)c2)cc1`, the melting point is 128 to 129 °C.

Compound `NCc1ccc2nccn2c1` displayed a melting point of 97 to 99 °C.

`Cc1ccc2oc3c(c2c1)-c1oc(C)cc1C(C)(c1ccccc1)CC3` (stereo unspecified): the melting point was determined as 119 °C.

Take `NC(=S)c1ccsc1`: the melting point lay in the range of 96 to 98 °C.

As for `COc1ccc(-c2csc(/C(C#N)=N/Nc3cccc(C)c3C)n2)cc1`, the melting point was 164 °C.

In turn, `CC(C)=CCCC(C)C1CCC2(C)C3=C(CCC12C)C1(C)CCC(O)C(C)(C)C1CC3` (stereo unspecified) had a melting point of 140 °C.

As for `Cc1nn(-c2ccccc2)c(C)c1CO`, the melting point fell in the range of 106 to 110 °C.

Consider `CCOC(=O)CCC(C)C1CCC2C3C(=O)C(Br)C4CC(OC(C)=O)CCC4(C)C3CC(OC(C)=O)C12C` (stereo unspecified), for which the melting point was in the range of 132 to 134 °C.

In turn, `NC(=S)c1ccccc1Br` registered a melting point of 83 to 85 °C.

In the case of `Oc1cc(O)ncn1`, the melting point worked out at 300 °C.

Turning to `CCOc1ccc(Br)cc1`, the melting point turned out to be 4 °C.

For the compound `CN(C)c1ccc(C2CC(c3ccc4ccccc4c3)=NN2c2ccccc2)cc1` (stereo unspecified), the melting point was found to be 186 °C.

Compound `Nc1ccc(OCCN2CCOCC2)cc1` had a melting point of 53 to 57 °C.

For `C[C@]12CCC(=O)C=C1CCC2=O`, the melting point lay in the range of 55 to 64 °C.

In turn, `Nc1nn2c(C(F)(F)F)cc(-c3cccs3)nc2c1/N=N/c1ccc(C(=O)O)cc1` had a melting point of 184 °C.

`COc1ccc(C(C)(C)c2ccc(OC)cc2)cc1` returned a melting point of 54 to 59 °C.

Regarding `CCOC(=O)c1sc(N)nc1C(F)(F)F`, the melting point amounted to 186 °C.

`CC(=O)c1ccc(C=O)cc1` showed a melting point of 33 °C.

Consider `O=C(Cl)c1ccc(-c2ncccn2)cc1`, for which the melting point lay in the range of 172 to 175 °C.

For the compound `ClCc1nc2ccccc2[nH]1`, the melting point was in the range of 146 to 150 °C.

The compound `CN(Cc1cc(Br)cc(Br)c1N)C1CCCCC1` registered a melting point of 238 °C.

For the compound `Nc1ccc(C=CC(=O)c2ccccc2)cc1`, the melting point is 151 °C.

In the case of `C=CCn1c2c(c3cc(OC)ccc31)CCc1cc(OC)ccc1-2`, the melting point was in the range of 92 to 93 °C.

Turning to `CCc1c(C)cc(C)cc1C`, the melting point is -16 °C.

Compound `COC(=O)c1cc(Cl)cc(C(=O)OC)c1` yielded a melting point of 78 to 80 °C.

The compound `O=C(O)/C=C/c1cccc2c(Br)cccc12` yielded a melting point of 269 to 270 °C.

Compound `CC(C)(C)N(NC(=O)c1ccccc1)C(=O)c1c(F)cccc1F` showed a melting point of 194 °C.

Turning to `COc1ccc(Br)cc1C`, the melting point stood at 68 °C.

`CN(C)C(=O)N(C(=O)c1ccccc1)c1ccc(Cl)c(Cl)c1` came in with a melting point of 119 °C.

`CCOC(=O)NCc1ccccc1`: the melting point was found to be 49 °C.

Take `COc1ccc(NC(=O)C(C)=NNC(N)=S)cc1`: the melting point turned out to be 234 °C.

The compound `CCOC(=O)c1cccc(C(=O)OCC)c1` displayed a melting point of 11.5 °C.

Consider `CN1CC(C(=O)NC2(C)OC3(O)C4CCCN4C(=O)C(Cc4ccccc4)N3C2=O)C=C2c3cccc4[nH]cc(c34)CC21` (stereo unspecified), for which the melting point came out at 214 °C.

The compound `CC(=O)Oc1ccccc1/C=C/c1ccccc1` returned a melting point of 56 °C.

For `O=C(O)C1=CC(Cl)=C(Cl)[C@H](O)[C@@H]1O`, the melting point fell in the range of 195 to 200 °C.

Turning to `CN(C)C(=O)CCCOC(=O)c1ccccc1`, the melting point stood at 40.5 °C.

In turn, `CC1CCC(C(C)C)C(OC(=O)/C(=C/c2ccccc2)Cc2ccccc2)C1` (stereo unspecified) had a melting point of 64 to 65 °C.

The compound `CCCC/C=C/CCCC` registered a melting point of -73 °C.

`O=C(Cl)c1cccc2ccccc12` yielded a melting point of 26 °C.

Turning to `N#Cc1cccc(F)c1`, the melting point was -16 °C.

`COc1ccc(C(=O)c2ccccc2O)c(O)c1`: the melting point came to 68 °C.

Compound `O=C(O)c1cccnc1Sc1ccc(Cl)cc1` yielded a melting point of 220 °C.

Regarding `O=C(Cl)c1cnn2ccccc12`, the melting point fell in the range of 116 to 118 °C.

Compound `Cc1cnc(Cl)c([N+](=O)[O-])c1` displayed a melting point of 46 to 50 °C.

With `Cn1nc(-c2cccs2)cc1C(=O)Cl`, the melting point lay in the range of 113 to 114 °C.

With `OCC1CCCCC1`, the melting point is -43 °C.

The compound `CN(C)c1ccc(C=CC(=O)O)cc1` returned a melting point of 225 to 228 °C.

Compound `N#Cc1ccsc1N` came in with a melting point of 103 to 106 °C.

`Cc1ccncc1C=NO`: the melting point was 180 °C.

Compound `O=C(O)C#Cc1cccc(C#CC(=O)O)c1` registered a melting point of 209 °C.

`N#CC1CCCCC1` displayed a melting point of 11 °C.

In the case of `O=Cc1ccc(-c2ccncc2)cc1`, the melting point fell in the range of 101 to 104 °C.

On to `Cc1cc([N+](=O)[O-])cc(Cl)c1N`, for which the melting point came out at 175 °C.

In turn, `O=C1NCC(CCl)O1` (stereo unspecified) yielded a melting point of 101 to 105 °C.

For the compound `Cc1cc(O)c([N+](=O)[O-])cc1Cl`, the melting point was 133 °C.

On to `CC1(C)OC2C(CO)OC(n3ccc(=O)[nH]c3=O)C2O1` (stereo unspecified), for which the melting point was 163 to 166 °C.

`CCCCCCCCCCCCCCCCCC(=O)OCCC` showed a melting point of 28.9 °C.

As to `Cn1cnc(C(=O)O)c1`, the melting point is 245 °C.

As for `CN(C)c1ccc(C(C=C2C=Cc3ccccc3N2N=O)c2ccccc2)cc1` (stereo unspecified), the melting point worked out at 196 °C.

In turn, `C=CCNC(=S)Nc1sc2c(c1C(=O)OCC)CCCC2` displayed a melting point of 151 to 152 °C.

As for `O=C(CCCN1CC=C(n2c(=O)[nH]c3ccccc32)CC1)c1ccc(F)cc1`, the melting point was 146 °C.

`CC(C)(Oc1ccc(CCNC(=O)c2ccc(Cl)cc2)cc1)C(=O)O` showed a melting point of 186 °C.

The compound `CCOC(=O)c1cn[nH]c1NC(=O)Nc1ccc(Cl)c(Cl)c1` registered a melting point of 269 to 270 °C.

As to `N#CCCNCCC#N`, the melting point is -6 °C.

In the case of `O=C(O)c1cc(O)cc(O)c1`, the melting point fell in the range of 235 to 240 °C.

Consider `O=c1[nH]cccc1[N+](=O)[O-]`, for which the melting point was determined as 232 °C.

In turn, `Cc1cc(Br)cnc1F` showed a melting point of 62 °C.

The compound `CC(C)(C)c1cc(C(F)(F)F)nc(N)n1` returned a melting point of 48 to 50 °C.

For the compound `CCOC=C(C#N)S(=O)(=O)Cc1ccco1`, the melting point lay within 98 to 100 °C.

The compound `COc1cc(CCC(=O)O)ccc1O` yielded a melting point of 90 °C.

Compound `CNc1ccccc1C(N)=O` displayed a melting point of 161 to 163 °C.

For `FC(F)(F)C(Cl)Br` (stereo unspecified), the melting point is -118 °C.

Turning to `O=[N+]([O-])c1cccc(F)c1CBr`, the melting point was 52 °C.

`CC1CCCC(C)C1C` (stereo unspecified) came in with a melting point of -66.9 °C.

Compound `N#Cc1conc1N` gave a melting point of 140 °C.

For the compound `COP(=O)(OC)OC(Br)C(Cl)(Cl)Br` (stereo unspecified), the melting point was 27 °C.

In turn, `CN1CCOCC1` yielded a melting point of -65 °C.

Take `O=[N+]([O-])c1ccc2ccccc2c1O`: the melting point fell in the range of 123 to 125 °C.

On to `OCc1ncoc1-c1ccccc1`, for which the melting point was 95 to 97 °C.

Consider `Cc1nc(/C(C#N)=C\c2ccco2)sc1/N=N/c1ccccc1[N+](=O)[O-]`, for which the melting point lay within 212 to 213 °C.

Compound `O=C(O)C(F)(F)C(F)(F)C(F)(F)C(F)(F)C(F)(F)C(F)(F)C(F)(F)C(F)(F)C(F)(F)C(F)(F)C(F)(F)C(F)(F)C(F)(F)F` yielded a melting point of 130 °C.

Consider `O=C(O)c1ccc(-c2ccccn2)s1`, for which the melting point was 231 to 233 °C.

Usually melting point stands for the temperature of the solid-liquid transition.

The values above are taken from a melting point compilation (Tetko et al.).
